Molecules are shown by their SMILES. pIC50: −log10 of the molar value. “And” between values parts separate entries of the source, which are not always exact repeats. Equal entries are not always repeated. Where only a bound is given, the exact number is not on record here.

Our source for the viability, T/C and IC50 values is PubChem BioAssay AID2060499 (Molecular Pharmacology Branch, DTP, NCI, 2025).

The assay deals with 777334-354-R2-J4-PDC tumor spheroids with HUVEC/MSC, viability. The assay can be described thus: Anticancer human tumor 777334-354-R2-J4-PDC patient-derived pancreatic adenocarcinoma cell line growth inhibition [GQUAD]. To be noted: for viability, T/C: stronger effect = lower value; for pIC50: curve of compound. An excerpt:
DNA G-quadruplex Stabilizer Agents in Combinations in Complex Spheroids
A high-throughput screen of multi-cell type tumor spheroids was designed to identify active combinations of DNA G-quadruplex stabilizer agents and targeted small molecules. Complex spheroids include a stromal component modeled by human endothelial cells (HUVEC) and fibroblasts modeled by human mesenchymal stem cells (MSCs). The concentration ranges selected for each drug and investigational agent were based upon clinically achievable concentrations if the clinical Cmax of the agent was known.
Compounds. The drugs and investigational agents: pidnarulex (CX-5461; NSC782164), APTO-253 (NSC789042), BRACO-19 (NSC847499), peposertib (NSC802822), ceralasertib (NSC780249), elimusertib (NSC800525), camonsertib (NSC841442), AZD-1390 (NSC803789), olaparib (NSC753686), talazoparib (NSC767125), ART-558 (NSC835418), sotorasib (NSC818433), MRTX-1133 (NSC836407), SN-38 (NSC673596), topotecan (NSC609699), etoposide (NSC141540), doxorubicin (NSC123127), gemcitabine (NSC613327), 5-fluorouracil (NSC19893), paclitaxel (NSC125973), vemurafenib (NSC761431), panobinostat (NSC761190), R-306465 (JNJ-16241199; NSC773264), adavosertib (NSC754352), TP-3654 (NSC805149), carboplatin (NSC241240), KSQ-4279 (NSC840948), and staurosporine (NSC755774) were obtained from the National Cancer Institute (NCI) Developmental Therapeutics Program Chemical Repository (34). The FDA-approved anticancer drug set is available from the NCI Developmental Therapeutics Program. […] The stock solutions were prepared in dimethyl sulfoxide (DMSO, Sigma-Aldrich, St. Louis, MO, cat. D2650) at 800-fold the tested concentration and stored at -70 degrees C prior to their use. All drugs and investigational agents were tested over a range starting from a high concentration at or near the clinical Cmax and decreasing in half-log increments. If the clinical Cmax for an agent had not been determined, the highest concentration tested was 10 microM.
2.3 Cell Culture. All cells were maintained in an incubator at 37 degrees C and 5% CO2 with 95% humidity. The PDC lines were cultured according to standard operating procedures established by the NCI PDMR. All PDCs were thawed and cultured in Matrigel-coated flasks prepared with a working solution of 1X Ham's F-12 nutrient mix, without supplementation (Invitrogen, cat. 11765054), 100 U/mL penicillin-streptomycin (Invitrogen, cat. 15140122), and 2.5% Matrigel (Corning Inc., cat. 354248) for the first three passages. The 857933-349-R-J2-PDC line was cultured in 6C/Colon 1B media, which includes advanced DMEM/F-12 (Thermo Fisher Scientific, cat. 12634028), 10 mM HEPES (Thermo Fisher Scientific, cat. 15630080), 1X GlutaMAX supplement (Thermo Fisher Scientific, cat. 35050061), 0.1 mg/mL primocin (InvivoGen, cat. ant-pm-2), 10% defined fetal bovine serum, heat inactivated (HyClone Laboratories Inc., cat. SH30070.03HI), 50% L-WRN conditioned media (ATCC, cat. CRL-3276), 1.25 mM N-Acetyl-L-cysteine (Sigma-Aldrich, cat. A9165), 10 mM nicotinamide (Sigma-Aldrich, cat. N0636), 1X B-27 supplement (Thermo Fisher Scientific, cat. 17504044), 1X N-2 supplement (Thermo Fisher Scientific, cat. 17502048), 10 microM Y-27632 dihydrochloride (Tocris Bioscience, cat. 1254), and 50 ng/mL human EGF recombinant protein (Thermo Fisher Scientific, cat. PHG0311). The 485176-168-R4-J1-PDC line was cultured in Panc media, which includes all 6C/Colon 1B media components plus 100 ng/mL human FGF-10 (Thermo Fisher Scientific, cat. 100-26), 500 nM SB-431542 (Selleckchem, cat. S1067), and gastrin (Tocris, cat. 3006).
[…]
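Further: spheroids exposed to compounds for 7 days before readout.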

On to `C#Cc1c(F)ccc2cc(O)cc(-c3ncc4c(N5CC6CCC(C5)N6)nc(OCC56CCCN5CC(F)C6)nc4c3F)c12` (configuration not stated), for which the pIC50 is over 7.50. Further, under “compound 0.0316 µM”, the viability, T/C was 45.7% and 46.4% and 48.8%. The viability, T/C (compound 0.1 µM) was 38.8% and 41.4% and 41.3%. For the same compound, the viability, T/C (compound 0.316 µM) was 35.2% and 32.8% and 38.1%. Also, the viability, T/C (compound 1 µM) is 30.4% and 28.5% and 34%. Under “compound 3.16 µM”, the viability, T/C is 26.4% and 36.1% and 29.3%. For the same compound, the viability, T/C (compound 10 µM) was 20.9% and 19.6% and 22.6%.
In the case of `C=CCn1c(=O)c2cnc(Nc3ccc(N4CCN(C)CC4)cc3)nc2n1-c1cccc(C(C)(C)O)n1`, the pIC50 was 6.09 and 6.06 and 6.10. In addition, the viability, T/C (compound 0.0316 µM) was 93.8% and 101% and 99.7%. Besides, for the setting “compound 0.1 µM”, the viability, T/C is 85.8% and 102% and 88%. The viability, T/C (compound 0.316 µM) was 81.1% and 84.7% and 74.9%. Further, the viability, T/C (compound 1 µM) is 43.1% and 45.4% and 41.5%. Besides, the viability, T/C (compound 3.16 µM) is 35.6% and 37.4% and 39%. The viability, T/C (compound 10 µM) is 30.4% and 38.4% and 35.2%.
For `CC(C)(O)C1CCC(Nc2ccc3ncc(-c4cccc(C(F)(F)F)c4)n3n2)CC1` (configuration not stated), the pIC50 was 5.79 and 5.89 and 6.06. The viability, T/C (compound 0.0316 µM) is 84.4% and 103% and 93.7%. Moreover, the viability, T/C (compound 0.1 µM) was 80.4% and 88.1% and 93.2%. Besides, the viability, T/C (compound 0.316 µM) was 82.7% and 83.2% and 94.2%. Further, under “compound 1 µM”, the viability, T/C was 62.6% and 55.1% and 44.4%. Besides, the viability, T/C (compound 3.16 µM) is 32.1% and 31.5% and 31.2%. Moreover, where the note is “compound 10 µM”, the viability, T/C is 34.5% and 39.3% and 36.5%.
As for `CCCS(=O)(=O)Nc1ccc(F)c(C(=O)c2c[nH]c3ncc(-c4ccc(Cl)cc4)cc23)c1F`, the pIC50 is 5.10 and 5.12. Moreover, for the setting “compound 0.0316 µM”, the viability, T/C was 107% and 111% and 99.5%. Besides, the viability, T/C (compound 0.1 µM) was 109% and 105% and 92.8%. The viability, T/C (compound 0.316 µM) was 114% and 127% and 108%. Besides, where the note is “compound 1 µM”, the viability, T/C is 110% and 120% and 102%. In addition, the viability, T/C (compound 3.16 µM) was 98.7% and 115% and 111%. Further, the viability, T/C (compound 10 µM) is 37.2% and 34.2% and 33.4%.
In the case of `COc1ncnc(C2CC2)c1-c1ncc2cnn(Cc3ccc(-c4nc(C(F)(F)F)cn4C(C)C)cc3)c2n1`, the pIC50 was under 5.00. Besides, the viability, T/C (compound 0.0316 µM) was 102% and 98.3% (2×). The viability, T/C (compound 0.1 µM) was 96.7% and 90.9% and 106%. For the same compound, the viability, T/C (compound 0.316 µM) was 103% and 98.9% and 98.6%. For the same compound, the viability, T/C (compound 1 µM) was 91.9% and 99.5% and 98.8%. Moreover, the viability, T/C (compound 3.16 µM) was 102% and 100% and 99.3%. Moreover, under “compound 10 µM”, the viability, T/C was 109% and 111% and 98.8%.
Regarding `O=C(NO)c1cnc(N2CCN(S(=O)(=O)c3ccc4ccccc4c3)CC2)nc1`, the pIC50 was 5.92 and 5.97 and 6.10. For the same compound, the viability, T/C (compound 0.0316 µM) was 80.7% and 107% and 88.9%. Besides, the viability, T/C (compound 0.1 µM) is 89.8% and 86% and 83.7%. Also, the viability, T/C (compound 0.316 µM) is 77.1% (2×) and 79.3%. Also, the viability, T/C (compound 1 µM) is 58% and 59.4% and 44%. For the same compound, the viability, T/C (compound 3.16 µM) was 11.9% and 9.01% and 3.01%. The viability, T/C (compound 10 µM) was 0.93% and 0.25% and 0.19%.

What is called viability, T/C is the result in the treated group divided by that in the control group, in per cent. By pIC50 is commonly meant −log10 of the IC50, conventionally taken in molar units.
